Assay results from the NIST ThermoML archive (doi:10.1021/je900969u).

Key:
[1] = 101 kPa, Liquid
[2] = xn = mol fraction of the nth substance listed; conditions: 101 kPa, Liquid

CN1CCNCC1 [N-methylpiperazine]
[1]
Conditions | mass density [kg/m3] | viscosity [mPa·s]
298.15 K | 899.28 | 1.856
303.15 K | 894.9 | 1.544
313.15 K | 886.07 | 1.25

CN1CCNCC1 [N-methylpiperazine] + CC1CCCCC1
[2]
Conditions | mass density, 298.15 K [kg/m3] | mass density, 303.15 K [kg/m3] | mass density, 313.15 K [kg/m3] | viscosity, 298.15 K [mPa·s] | viscosity, 303.15 K [mPa·s] | viscosity, 313.15 K [mPa·s]
x1 = 0.0988 | 775.01 | 770.65 | 761.89 | 0.716 | 0.676 | 0.582
x1 = 0.1972 | 785.84 | 781.44 | 772.64 | 0.751 | 0.698 | 0.604
x1 = 0.297 | 797.52 | 793.12 | 784.26 | 0.801 | 0.73 | 0.634
x1 = 0.3964 | 811.57 | 805.63 | 796.74 | 0.867 | 0.776 | 0.674
x1 = 0.4953 | 822.93 | 818.51 | 809.59 | 0.945 | 0.84 | 0.725
x1 = 0.5948 | 836.59 | 832.17 | 823.26 | 1.057 | 0.918 | 0.791
x1 = 0.6952 | 850.68 | 846.26 | 837.34 | 1.19 | 1.022 | 0.868
x1 = 0.7969 | 865.9 | 861.49 | 852.58 | 1.362 | 1.164 | 0.97
x1 = 0.8977 | 881.36 | 876.96 | 868.08 | 1.585 | 1.326 | 1.087
x1 = 1 | 899.28 | 894.9 | 886.07 | 1.856 | 1.544 | 1.25
